# Source: article PMC5607274, “An iterative compound screening contest method for identifying target protein inhibitors using the tyrosine-protein kinase Yes” (Scientific Reports, 2017)
# Target: T1, human recombinant Yes [a.a. 2–543 (end)] (Homo sapiens, UniProt P07947)
# T1 construct: human recombinant Yes [a.a; 2–543 (end)]; purchased BPS Bioscience 40488
# Experiment: ADP-Glo kinase assay, inhibition rates of Yes phosphorylation activity (first and second screening)
# Type: biochemical
# Conditions: first screening; mean of n = 4 wells; 10 μmol L−1 compound
# How it was run: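 ADP-Glo luminescence measured inhibition of human recombinant Yes (a.a. 2–543) phosphorylation activity. In the first screen, each compound ran in 4 wells and inhibition rates were averaged. The second screen retested hits as compounds dissolved from fresh powder.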
# T1 sequence (P07947 2-543): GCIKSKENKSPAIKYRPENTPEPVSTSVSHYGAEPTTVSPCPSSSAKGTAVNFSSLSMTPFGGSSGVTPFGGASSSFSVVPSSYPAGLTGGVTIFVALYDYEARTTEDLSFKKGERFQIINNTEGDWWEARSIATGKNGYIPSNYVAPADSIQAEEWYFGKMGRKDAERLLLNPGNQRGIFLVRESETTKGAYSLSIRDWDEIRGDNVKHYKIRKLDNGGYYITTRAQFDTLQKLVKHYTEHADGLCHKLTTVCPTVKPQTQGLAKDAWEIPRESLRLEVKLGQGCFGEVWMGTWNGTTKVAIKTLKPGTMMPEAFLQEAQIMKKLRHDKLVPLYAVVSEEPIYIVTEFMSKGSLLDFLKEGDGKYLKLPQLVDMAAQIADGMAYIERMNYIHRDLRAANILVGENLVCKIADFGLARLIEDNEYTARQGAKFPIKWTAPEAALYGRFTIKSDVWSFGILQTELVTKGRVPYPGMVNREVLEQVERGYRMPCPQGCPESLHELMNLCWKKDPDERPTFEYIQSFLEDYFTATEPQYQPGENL
row,First screening IR (inhibition rate) [%],Compound
1,4,O=C(CCc1ccsc1)Nc1cc(C(F)(F)F)c[nH]c1=O [Compound Z432185696]
2,41,c1ccc(Cn2cccn2)c(CNc2cncc(-n3cccn3)n2)c1 [Compound Z432289626]
3,8,C=CCn1c(=O)c2ccccc2n2c(SCC(=O)Nc3ccc(N4CCN(C)CC4)cn3)nnc12 [Compound Z432326346]
4,4,CN(C)S(=O)(=O)c1cccc(CS(=O)(=O)c2ccccn2)c1 [Compound Z432528000]
5,-14,Cc1ccc(Oc2ccc(NC(=O)N3CCNC(=O)C3)cn2)cc1 [Compound Z435639920]
6,3,COc1cccc(OCCN2CCN(c3cc(C)nc4c(-c5ccc(Cl)cc5)c(C)nn34)CC2)c1 [Compound Z435980234]
7,6,CC(C)c1noc(C(C)S(=O)(=O)C/C=C/c2ccccc2)n1 (stereo not drawn) [Compound Z436400008]
8,-1,COc1cccc(OCCN2CCN(c3cc(C(C)(C)C)nc4c(-c5ccc(F)cc5)c(C)nn34)CC2)c1 [Compound Z439257332]
9,-6,Cc1nn(C(C)(C)C)c2nc(C3CC3)cc(C(=O)NC(C)C)c12 [Compound Z441582602]
10,4,Cn1ncc2c(N3CCN(CC[S+]([O-])c4cc(Cl)ccc4Cl)CC3)ncnc21 (stereo not drawn) [Compound Z445169626]
11,-2,COc1ccc(CNCc2cn[nH]c2-c2ccc(C)o2)cn1 [Compound Z446209214]
12,1,CN(C)c1ccc(CNC(=O)N2CCN(C3=NS(=O)(=O)c4ccccc43)CC2)cc1 [Compound Z449089632]
13,45,Cc1ccc2c(=O)c(C(=O)N(C)CC(=O)Nc3ccc(Cl)c(Cl)c3)c[nH]c2n1 [Compound Z454409356]
14,-3,Cc1oc(C)c(S(N)(=O)=O)c1C(=O)N1CCN(Cc2c(F)cccc2Cl)CC1 [Compound Z466082788]
15,-16,Cc1cc(CN(C)C(=O)NCc2ccc(N3CCCC3=O)cc2)no1 [Compound Z485637938]
16,9,CCN(Cc1ccc(Cl)s1)C(=O)NCc1ccnc(N2CCN(C)CC2)c1 [Compound Z508129336]
17,-4,CS(=O)(=O)CS(=O)(=O)C(F)(F)F [Compound Z540725378]
18,1,Cc1ncc2c(n1)CCN(C(=O)NCc1cc(-c3ccccc3)no1)C2 [Compound Z558380580]
19,-4,CCCn1c(=O)c2ccccc2n2c(=S)n(CN3CCC(C(=O)Nc4cc(C)ccn4)CC3)nc12 [Compound Z573186768]
20,-5,Cc1cccc(NC(=O)C2CCCN(c3nc(CN4CCOCC4)nc4sc(C)c(C)c34)C2)n1 (stereo not drawn) [Compound Z573238670]
21,-18,O=C(Nc1cc(N2CCCS2(=O)=O)ccc1O)c1cccc(C(F)(F)F)c1 [Compound Z573928840]
22,1,N#CC(C(=O)CCc1ccc(F)cc1)c1nc2cc(Cl)ccc2c(=O)[nH]1 (stereo not drawn) [Compound Z594627070]
23,-4,O=C(CCNC(=O)c1cccs1)Nc1ccc2nc(-c3cccc(F)c3)[nH]c2c1 [Compound Z594945904]
24,2,CN(c1ccc(NC(=O)N2CCN(C(=O)c3cccnc3)CC2)cc1F)C1CCCCC1 [Compound Z595406192]

row,First screening IR (inhibition rate) [%],Compound
1,7,Cc1cc(Br)c(O)c(C(=O)NCCC(=O)N2CCOCC2)c1 [Compound Z596098802]
2,-5,COc1ccc(NC(=O)C(=O)c2c(C)nn(-c3ccccc3)c2C)cc1OCc1cn2ccccc2n1 [Compound Z605682156]
3,-12,CC(C)c1nn(C)c(Cl)c1CNCc1ccc(N2CCOCC2)c(F)c1 [Compound Z635707390]
4,10,CCCn1c(NC(=O)c2ccc3c(c2)S(=O)(=O)N(C(C)C)C3=O)nc2ccccc21 [Compound Z641940000]
5,-21,FC(F)(F)c1ccnc(Nc2ccc(N3CCCCCC3)cc2)n1 [Compound Z642699568]
6,0,COc1cc(Br)c(S(=O)(=O)N(C)C(=O)C2CC2)cc1OC [Compound Z643690740]
7,2,CC(Nc1ccc(C#N)cn1)c1ccc(OCc2cccnc2)cc1 (stereo not drawn) [Compound Z644822950]
8,14,Cc1occc1C(=O)Nc1cc(Nc2nccc(C(F)(F)F)n2)ccc1F [Compound Z645121524]
9,-2,COCCOc1ccc(CNc2ncnc3ccccc23)cn1 [Compound Z645525338]
10,-38,Cn1ncc2c(NCCOc3ccc4c(c3)OCO4)ncnc21 [Compound Z645593692]
11,-20,CC(C)(C(=O)N1CCN(C(=O)C2CCC(=O)NC2)CC1)c1ccccc1 (stereo not drawn) [Compound Z645877938]
12,8,Cc1cccc(C)c1OC1CCN(c2ncnc3c2cnn3C)CC1 [Compound Z646031500]
13,11,O=C1OCCN1Cc1ccc(Nc2nccc(C(F)(F)F)n2)cc1 [Compound Z646432252]
14,5,Cn1cc(Nc2nccc(C(F)(F)F)n2)cn1 [Compound Z646439314]
15,5,CC(NC(=O)Cn1nc(-c2ccccc2)ccc1=O)c1nc2ccccc2[nH]1 (stereo not drawn) [Compound Z647256318]
16,-7,O=C(Nc1c[nH]ccc1=O)c1ccc2c(c1)CC(c1ccccc1)OC2=O (stereo not drawn) [Compound Z649184702]
17,-10,O=C(CCNC(=O)c1cc2cc(F)ccc2[nH]1)Nc1ccccn1 [Compound Z649200126]
18,-31,CC(C)c1ccc2cc(C(=O)NCCN3CCS(=O)(=O)CC3)[nH]c2c1 [Compound Z649805708]
19,-2,Cc1cnc(C(=O)Nc2ccc3nc(-c4ccc(F)cc4)[nH]c3c2)cn1 [Compound Z651750688]
20,31,CS(=O)(=O)c1ccc(F)c(S(C)(=O)=O)c1 [Compound Z652718652]
21,-14,O=C(CCc1cnn(-c2ccccc2)c1)Nc1n[nH]c(-c2ccccn2)n1 [Compound Z653343234]
22,-3,Cc1ccc2[nH]c(C)c(CC(=O)Nc3n[nH]c(-c4ccccn4)n3)c2c1 [Compound Z653347886]
23,8,CS(=O)(=O)c1ccc(N2CCC2)c(S(C)(=O)=O)c1 [Compound Z666133744]
24,7,CCN(CC(C)C)c1ccc(S(C)(=O)=O)cc1S(C)(=O)=O [Compound Z666139280]

row,First screening IR (inhibition rate) [%],Compound
1,52,CN(CC1CC1)c1ccc(S(C)(=O)=O)cc1S(C)(=O)=O [Compound Z666145136]
2,1,COc1cc(CNC(=O)c2ccc[nH]c2=O)ccc1OCC(N)=O [Compound Z666252570]
3,-9,Cc1cccn2cc(-c3ccc(NC(=O)c4ccc(=O)[nH]c4)cc3)nc12 [Compound Z666279820]
4,-2,Cc1nn(-c2ccc(Br)cc2)c(C)c1C(=O)Nc1ncn[nH]1 [Compound Z727167436]
5,45,c1ccc2nc(Nc3cn[nH]c3)cnc2c1 [Compound Z729018028]
6,-20,CNc1ccc(Nc2nccc(C(F)(F)F)n2)cn1 [Compound Z729056288]
7,2,NC(=O)c1cnc(NCc2ccnc(N3CCCCC3)c2)c(Cl)c1 [Compound Z729056808]
8,0,CCCNC(=O)CN(CCC)C(=O)c1cc(-c2ccccc2)nc2c1cnn2CC [Compound Z729700802]
9,22,O=C1CC(C(=O)Nc2cc(CC3CCCCC3)[nH]n2)c2ccc(F)cc2N1 (stereo not drawn) [Compound Z729744666]
10,-9,COCCCn1c(=O)c2ccccc2n2c(=S)n(CN(Cc3ccc(N(C)C)cc3)C(C)C)nc12 [Compound Z729842360]
11,20,O=[N+]([O-])c1ccc(Nc2cccc(N3CCCC3)c2)c([N+](=O)[O-])c1 [Compound Z729847414]
12,2,O=C(CCCNC(=O)c1ccc(-c2ccccc2F)o1)Nc1ccc(Cl)cc1 [Compound Z730571712]
13,-10,C#CCN(C1CCS(=O)(=O)C1)S(=O)(=O)c1ccccc1F (stereo not drawn) [Compound Z734126534]
14,-2,Cn1c2ccccc2n2c3ccccc3c(=O)c(C#N)c12 [Compound Z734296158]
15,-1,Cn1c2ccccc2n2c3cccc(F)c3c(=O)c(C#N)c12 [Compound Z734467112]
16,2,CC(C)(C)n1nc(C(=O)Nc2cccc(C3SCCCS3)c2)cc1C1CC1 [Compound Z735448522]
17,4,Brc1ccc2nc(CNCc3cnc(-c4ccccc4)nc3)cn2c1 [Compound Z736057568]
18,32,CCS(=O)(=O)c1ccc(S(=O)(=O)N2CCCSCC2)cc1 [Compound Z736543988]
19,-4,CCN(C(C)C)S(=O)(=O)c1ccc(S(C)(=O)=O)cc1 [Compound Z736710192]
20,0,C/C=C/C=C/C(=O)NCc1cccc(C(=O)NCc2ccco2)c1 [Compound Z737550454]
21,3,CN(C(=O)c1ccc(NC(=O)C2CCCO2)cc1Cl)C1CCCCC1 (stereo not drawn) [Compound Z738379554]
22,0,CN(C(=O)c1ccc(C2SCCCS2)cc1)c1ccc(C(N)=O)cc1 [Compound Z740420934]

# Same assay, conditions: second screening, dissolved from fresh powder; n = 4; 10 μmol L−1 compound
row,Second screening IR (inhibition rate) [%],Compound
1,18,c1ccc(Cn2cccn2)c(CNc2cncc(-n3cccn3)n2)c1 [Compound Z432289626]
2,-12,c1ccc2nc(Nc3cn[nH]c3)cnc2c1 [Compound Z729018028]
